The values below come from ChEMBL document CHEMBL3813651, “Structure-activity relationships of dibenzoylhydrazines for the inhibition of P-glycoprotein-mediated quinidine transport” (Bioorg Med Chem, 2016).

Data set [1] concerns the target T1, P-glycoprotein (ABCB1) (Homo sapiens, UniProt P08183). The data set can be described thus: Inhibition of human P-glycoprotein transfected in pig LLC-GA5-COL150 cells assessed as quinidine transport from apical to basolateral side at 2 uM preincubated for 30 mins followed by quinidine addition to apical side measured after 60 mins. The conditions noted are these: LLC-PK1, probe quinidine.

The target in data set [2] is T1, P-glycoprotein (ABCB1). The data set can be described thus: Inhibition of human P-glycoprotein transfected in pig LLC-GA5-COL150 cells assessed as quinidine transport from apical to basolateral side at 30 uM preincubated for 30 mins followed by quinidine addition to apical side measured after 60 mins. The conditions noted are these: LLC-PK1, probe quinidine. Format: cell-based.

Data set [3] concerns the target ATP-dependent translocase ABCB1 (Homo sapiens, UniProt P08183). The experiment in a line: Inhibition of human P-glycoprotein transfected in pig LLC-GA5-COL150 cells assessed as quinidine transport from apical to basolateral side preincubated for 30 mins followed by quinidine addition to apical side measured after 60 mins. Format: cell-based. On the set-up: log(activity): scale not given here. The conditions noted are these: for log(activity): human, llc-ga5-col150, 1 h.

Data set [4] in a line: Lipophilicity , logP of the compound. The conditions noted are these: octanol/water. Format: physicochemical.

Molecules are shown by their SMILES.

T1 sequence (P08183 whole entry): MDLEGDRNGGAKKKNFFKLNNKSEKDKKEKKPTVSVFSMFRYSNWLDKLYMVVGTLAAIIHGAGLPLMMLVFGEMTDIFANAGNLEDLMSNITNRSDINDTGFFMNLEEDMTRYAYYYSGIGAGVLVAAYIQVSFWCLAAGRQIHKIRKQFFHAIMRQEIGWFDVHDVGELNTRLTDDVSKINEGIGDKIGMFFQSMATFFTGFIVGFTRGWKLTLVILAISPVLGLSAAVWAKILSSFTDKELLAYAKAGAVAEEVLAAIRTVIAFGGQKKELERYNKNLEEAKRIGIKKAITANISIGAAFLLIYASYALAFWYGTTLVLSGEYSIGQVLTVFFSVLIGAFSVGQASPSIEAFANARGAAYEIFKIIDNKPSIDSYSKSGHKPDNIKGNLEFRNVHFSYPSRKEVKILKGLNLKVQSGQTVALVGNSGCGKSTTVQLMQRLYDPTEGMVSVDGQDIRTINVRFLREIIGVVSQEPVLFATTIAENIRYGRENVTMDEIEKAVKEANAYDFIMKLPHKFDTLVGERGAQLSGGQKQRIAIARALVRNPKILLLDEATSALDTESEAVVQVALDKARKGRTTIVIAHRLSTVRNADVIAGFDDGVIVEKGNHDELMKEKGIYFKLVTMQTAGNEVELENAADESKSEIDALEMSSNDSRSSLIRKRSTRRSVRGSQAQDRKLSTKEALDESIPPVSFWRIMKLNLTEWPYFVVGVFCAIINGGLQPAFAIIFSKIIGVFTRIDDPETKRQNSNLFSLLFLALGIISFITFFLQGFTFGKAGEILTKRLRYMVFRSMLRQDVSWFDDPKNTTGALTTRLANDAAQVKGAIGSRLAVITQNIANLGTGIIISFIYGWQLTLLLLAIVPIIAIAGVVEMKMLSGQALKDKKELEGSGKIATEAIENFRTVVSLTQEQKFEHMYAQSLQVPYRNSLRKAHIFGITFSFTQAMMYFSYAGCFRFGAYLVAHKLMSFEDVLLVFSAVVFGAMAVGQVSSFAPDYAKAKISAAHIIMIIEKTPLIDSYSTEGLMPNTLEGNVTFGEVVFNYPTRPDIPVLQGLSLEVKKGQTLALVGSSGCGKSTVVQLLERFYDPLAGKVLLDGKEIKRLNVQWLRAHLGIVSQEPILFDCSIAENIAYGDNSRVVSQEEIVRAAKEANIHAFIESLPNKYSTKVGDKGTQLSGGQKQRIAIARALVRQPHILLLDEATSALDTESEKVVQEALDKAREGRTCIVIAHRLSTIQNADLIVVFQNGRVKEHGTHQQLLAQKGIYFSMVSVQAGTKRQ
Chain of ATP-dependent translocase ABCB1 (P08183 whole entry): as above

Consider `COc1cc2c(cc1OC)CN(CCc1ccc(NC(=O)c3cccc4c(=O)c5cccc(OC)c5[nH]c34)cc1)CC2`, for which, at P-glycoprotein (ABCB1) [1], the inhibition at 1 h, 2 µM came out at 100%.
In the case of `CC(C)(C)N(NC(=O)c1ccccc1Br)C(=O)c1ccccc1Cl`, the inhibition at 1 h, 30 µM at P-glycoprotein (ABCB1) [2] amounted to 10.1%. Also, the “log(activity)” value in data set [3] is listed as -0.95. In addition, the lipophilicity (logP) in data set [4] worked out at 2.91.
For `Cc1ccc(C(=O)NN(C(=O)c2ccccc2Cl)C(C)(C)C)cc1C`, on P-glycoprotein (ABCB1) [2], the inhibition at 1 h, 30 µM is 20.8%. Also, the “log(activity)” value in data set [3] is listed as -0.58. In data set [4], this compound returned a logP of 3.65.
As to `Cc1cc(C)cc(C(=O)NN(C(=O)c2ccccc2Cl)C(C)(C)C)c1`, on P-glycoprotein (ABCB1) [2], the inhibition at 1 h, 30 µM worked out at 22.4%. Also, the “log(activity)” value in data set [3] is listed as -0.54. In data set [4], this compound displayed a log partition coefficient (logP) of 3.67.
As for `Cc1ccc(C)c(C(=O)NN(C(=O)c2ccccc2Cl)C(C)(C)C)c1`, on P-glycoprotein (ABCB1) [2], the inhibition at 1 h, 30 µM stood at 26.8%. Besides, in data set [3], the IC50 was 73.6 µM and the “log(activity)” value was -0.44. Also, in data set [4], the log partition coefficient (logP) is 3.4.
Consider `CC(C)(C)N(NC(=O)c1cccc(C(F)(F)F)c1)C(=O)c1ccccc1Cl`, for which, at P-glycoprotein (ABCB1) [2], the inhibition at 1 h, 30 µM came out at 33.4%. In data set [3], the IC50 worked out at 43.8 µM and the “log(activity)” value is listed as -0.3. This compound yielded a lipophilicity (logP) in data set [4] of 3.7.
Consider `CC(C)(C)N(NC(=O)c1cccc(C#N)c1)C(=O)c1ccccc1Cl`, for which the inhibition at 1 h, 30 µM at P-glycoprotein (ABCB1) [2] stood at 9.5%. Also, the “log(activity)” value in data set [3] was -0.98. Moreover, in data set [4], the logP was found to be 2.48.
